Numbers after ± are expanded uncertainties.
Test: mn = molality of the nth substance listed, in mol/kg
Conditions: 100 kPa, Liquid; for speed of sound: Frequency=3 MHz, Sing-around technique in a fixed-path interferometer; for mass density: Vibrating tube method

Q: Which speed of sound (288.15 K, m1 = 0.5) does the source give for N.O=P(O)(O)O [ammonium dihydrogen phosphate] + O here?
A: The speed of sound was 1507.2 ± 1.2 m/s.

Q: What about the speed of sound (288.15 K, m1 = 1) of the same compound?
A: Its speed of sound is 1544.3 ± 1.3 m/s.

Q: What about the speed of sound (288.15 K, m1 = 1.5) of the same compound?
A: Its speed of sound is 1579.5 ± 1.3 m/s.

Q: What about the speed of sound (288.15 K, m1 = 2) of the same compound?
A: Its speed of sound is 1613.6 ± 1.3 m/s.

Q: What about the mass density (288.15 K, m1 = 0.5) of the same compound?
A: Its mass density is 1029.89 ± 0.11 kg/m3.

Q: And the mass density (288.15 K, m1 = 1)?
A: The mass density was 1057.21 ± 0.12 kg/m3.

Q: And the mass density (288.15 K, m1 = 1.5)?
A: Its mass density is 1082.49 ± 0.12 kg/m3.

Q: And the mass density (288.15 K, m1 = 2)?
A: The mass density was 1105.65 ± 0.13 kg/m3.

Q: And the speed of sound (298.15 K, m1 = 0.5)?
A: The speed of sound was 1534.7 ± 1.2 m/s.

Q: And the speed of sound (298.15 K, m1 = 1)?
A: The speed of sound was 1569.5 ± 1.3 m/s.

Q: And the speed of sound (298.15 K, m1 = 1.5)?
A: Its speed of sound is 1602.2 ± 1.3 m/s.

Q: And the speed of sound (298.15 K, m1 = 2)?
A: The speed of sound was 1634.1 ± 1.3 m/s.

Q: And the mass density (298.15 K, m1 = 0.5)?
A: The mass density was 1026.93 ± 0.11 kg/m3.

Q: And the mass density (298.15 K, m1 = 1)?
A: Its mass density is 1054.11 ± 0.12 kg/m3.

Q: What about the mass density (298.15 K, m1 = 1.5) of the same compound?
A: The mass density was 1079.39 ± 0.12 kg/m3.

Q: And the mass density (298.15 K, m1 = 2)?
A: The mass density was 1102.5 ± 0.13 kg/m3.

Q: What about the speed of sound (308.15 K, m1 = 0.5) of the same compound?
A: Its speed of sound is 1555.7 ± 1.2 m/s.

Q: And the speed of sound (308.15 K, m1 = 1)?
A: The speed of sound was 1588.6 ± 1.2 m/s.

Q: And the speed of sound (308.15 K, m1 = 1.5)?
A: Its speed of sound is 1619.5 ± 1.3 m/s.

Q: And the speed of sound (308.15 K, m1 = 2)?
A: The speed of sound was 1649.6 ± 1.3 m/s.

Q: What about the mass density (308.15 K, m1 = 0.5) of the same compound?
A: The mass density was 1023.68 ± 0.11 kg/m3.

Q: And the mass density (308.15 K, m1 = 1)?
A: The mass density was 1050.64 ± 0.12 kg/m3.

Q: What about the mass density (308.15 K, m1 = 1.5) of the same compound?
A: Its mass density is 1075.63 ± 0.12 kg/m3.

Q: And the mass density (308.15 K, m1 = 2)?
A: The mass density was 1098.68 ± 0.13 kg/m3.

Q: What about the speed of sound (318.15 K, m1 = 0.5) of the same compound?
A: Its speed of sound is 1570.8 ± 1.2 m/s.

Q: And the speed of sound (318.15 K, m1 = 1)?
A: The speed of sound was 1602.3 ± 1.2 m/s.

Q: What about the speed of sound (318.15 K, m1 = 1.5) of the same compound?
A: The speed of sound was 1631.7 ± 1.3 m/s.

Q: And the speed of sound (318.15 K, m1 = 2)?
A: Its speed of sound is 1660.4 ± 1.3 m/s.

Q: And the mass density (318.15 K, m1 = 0.5)?
A: Its mass density is 1019.89 ± 0.11 kg/m3.

Q: And the mass density (318.15 K, m1 = 1)?
A: The mass density was 1046.76 ± 0.12 kg/m3.

Q: What about the mass density (318.15 K, m1 = 1.5) of the same compound?
A: Its mass density is 1071.69 ± 0.12 kg/m3.

Q: What about the mass density (318.15 K, m1 = 2) of the same compound?
A: The mass density was 1094.7 ± 0.13 kg/m3.

From the NIST ThermoML archive (doi:10.1021/acs.jced.7b00257)
